The target in the experiment is T1, human PAH with the R408W mutation (Homo sapiens, UniProt P00439, R408W).
T1 construct: expressed in transfected cells
T1 sequence (P00439 1-452 R408W): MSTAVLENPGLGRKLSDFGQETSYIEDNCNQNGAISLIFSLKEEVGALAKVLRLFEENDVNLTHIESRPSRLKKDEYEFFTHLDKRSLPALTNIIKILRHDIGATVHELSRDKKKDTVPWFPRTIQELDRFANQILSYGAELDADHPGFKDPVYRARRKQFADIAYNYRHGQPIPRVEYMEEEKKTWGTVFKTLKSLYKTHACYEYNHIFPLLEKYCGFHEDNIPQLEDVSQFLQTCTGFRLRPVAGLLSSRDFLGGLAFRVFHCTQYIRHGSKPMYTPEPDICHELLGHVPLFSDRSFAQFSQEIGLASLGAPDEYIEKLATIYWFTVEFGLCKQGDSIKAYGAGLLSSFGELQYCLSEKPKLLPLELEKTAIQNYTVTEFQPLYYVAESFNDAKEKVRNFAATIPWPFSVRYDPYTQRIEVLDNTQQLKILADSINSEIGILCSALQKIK
The experiment can be described thus: Cell Based Phenylalanine Flux Assay. Also on record: scale not given here. The conditions noted are these: A375 cells expressing human R408W PAH, 13C-Tyrosine by LC-MS, average where tested multiple times.

Where [1] appears, read: 24 hrs compound incubation, read-out: AC50.
[2] abbreviates: 24 hrs with compound, read-out: AC50.

Each structure is given as a SMILES string. Read-outs that look alike come from different tables or passages of the source.

In the case of `CC(F)(F)c1ncc(C(=O)N2CCc3[nH]cnc3[C@@H]2c2nc3c(F)cccc3s2)s1` [Example 1514, (R)-(2-(1,1-difluoroethyl)thiazol-5-yl)(4-(4-fluorobenzo[d]thiazol-2-yl)-6,7-dihydro-1H-imidazo[4,5-c]pyridin-5(4H)-yl)methanone], the AC50 under setting [1] fell in the range of 1000 to 5000 nM. `CN(C)CCc1nc(C#N)c(C(=O)N2CCc3[nH]cnc3C2c2nc3ccccc3s2)o1` (stereo not drawn): the AC50 result (24 hrs with compound) is on record as “E, E”. For the molecule `O=C(CCc1ncc(Cl)s1)N1CCc2[nH]cnc2[C@H]1c1nc2ccccc2[nH]1` [Example 996, (S)-1-(4-(1H-benzo[d]imidazol-2-yl)-1,4,6,7-tetrahydro-5H-imidazo[4,5-c]pyridin-5-yl)-3-(5-chlorothiazol-2-yl)propan-1-one], under setting [1], the AC50 was 1000 to 5000 nM. `Cn1ncc(C(=O)N2CCc3[nH]cnc3C2c2nc3c(F)cccc3s2)c1Cl` (stereo not drawn): under setting [2], the AC50 was above 5000 nM. Consider `O=C(c1ccn[nH]1)N1CCc2[nH]cnc2C1c1nc2c(F)cccc2s1` (stereo not drawn), for which the half-maximal activity concentration (AC50) under setting [2] fell in the range of 1000 to 5000 nM. On the same count and under the same terms, the figure for `O=C(CC1CC1)N1CCc2[nH]cnc2C1c1nc2c(F)cccc2s1` (stereo not drawn) is 1000 to 5000 nM. As to `c1ccc2sc([C@H]3c4nc[nH]c4CCN3Cc3nccs3)nc2c1` [Example 1140, (R)-2-(5-(thiazol-2-ylmethyl)-4,5,6,7-tetrahydro-1H-imidazo[4,5-c]pyridin-4-yl)benzo[d]thiazole], the AC50 under setting [1] lay in the range of 1000 to 5000 nM. In the case of `O=C(CCC1CC1)N1CCc2[nH]cnc2[C@@H]1c1nc2ccccc2s1` [Example 1022, (R)-1-(4-(benzo[d]thiazol-2-yl)-6,7-dihydro-1H-imidazo[4,5-c]pyridin-5(4H)-yl)-3-cyclopropylpropan-1-one], the AC50 under setting [1] was in the range of 1000 to 5000 nM. Turning to `O=C(C1CC1)N1CCc2[nH]cnc2C1c1nc2c(F)cccc2s1` (stereo not drawn), the AC50 under setting [2] is above 5000 nM. Take `O=C(c1nc2cc(F)ccc2s1)N1CCc2[nH]cnc2[C@H]1c1nc2ccccc2s1` [Example 1095]: under setting [1], the AC50 was 500 to 1000 nM. Take `O=C(Cc1nccs1)N1CCc2[nH]cnc2C1c1nc2c(F)cccc2s1` (stereo not drawn): the AC50 under setting [2] is above 5000 nM. For the molecule `O=C(c1ncn2ccccc12)N1CCc2[nH]cnc2[C@@H]1c1nc2cc(F)ccc2s1` [Example 1158, (R)-(4-(5-fluorobenzo[d]thiazol-2-yl)-6,7-dihydro-1H-imidazo[4,5-c]pyridin-5(4H)-yl)(imidazo[1,5-a]pyridin-1-yl)methanone], the AC50 under setting [1] is above 5000 nM. With `O=C(c1ccon1)N1CCc2[nH]cnc2C1c1nc2ccc(F)cc2[nH]1` (stereo not drawn), the AC50 under setting [2] lay within 1000 to 5000 nM.

For `Nc1cc(C(=O)N2CCc3[nH]cnc3[C@H]2c2nc3ccccc3s2)n(C(F)F)n1` [Example 2051], the AC50 under setting [1] was below 500 nM.

As for `O=C(c1cnn2ccccc12)N1CCc2[nH]cnc2[C@@H]1c1nc2ccccc2s1` [Example 1010, (R)-(4-(benzo[d]thiazol-2-yl)-6,7-dihydro-1H-imidazo[4,5-c]pyridin-5(4H)-yl)(pyrazolo[1,5-a]pyridin-3-yl)methanone], the AC50 under setting [1] lay within 1000 to 5000 nM. `O=C(c1nc2ccc(F)cc2s1)N1CCc2[nH]cnc2C1c1nc2ccccc2s1` (stereo not drawn): the AC50 under setting [2] was above 5000 nM. In the case of `CN(C)Cc1ccc2c(C(=O)N3CCc4[nH]cnc4[C@@H]3c3nc4ccccc4s3)cnn2c1` [Example 1312, (R)-(4-(benzo[d]thiazol-2-yl)-6,7-dihydro-1H-imidazo[4,5-c]pyridin-5(4H)-yl)(6-((dimethylamino)methyl)pyrazolo[1,5-a]pyridin-3-yl)methanone], the AC50 under setting [1] is above 5000 nM. For `CC(=O)Cn1ncc(C(=O)N2CCc3[nH]cnc3[C@@H]2c2nc3c(F)cccc3s2)c1Cl` (single isomer, unassigned), the AC50 under setting [2] was above 5000 nM. The same measure, in the same setting: as for `NC(=O)c1ncoc1C(=O)N1CCc2[nH]cnc2C1c1nc2ccccc2s1` (stereo not drawn), the figure is above 5000 nM. `CC1(C)CC=C(c2ncc(C(=O)N3CCc4[nH]cnc4[C@@H]3c3nc4ccccc4s3)s2)CC1` [Example 1352, (R)-(4-(benzo[d]thiazol-2-yl)-6,7-dihydro-1H-imidazo[4,5-c]pyridin-5(4H)-yl)(2-(4,4-dimethylcyclohex-1-en-1-yl)thiazol-5-yl)methanone]: under setting [1], the AC50 was in the range of 1000 to 5000 nM. Same read-out and setting: the figure for `O=C(c1cnco1)N1CCc2[nH]cnc2[C@@H]1c1nc2cccc(F)c2s1` [Example 1248, (R)-(4-(7-fluorobenzo[d]thiazol-2-yl)-6,7-dihydro-1H-imidazo[4,5-c]pyridin-5(4H)-yl)(oxazol-5-yl)methanone] is 1000 to 5000 nM; for `Cc1cnc(C(=O)N2CCc3[nH]cnc3[C@H]2c2nc3ccccc3s2)s1` [Example 1055] it is 500 to 1000 nM. The same measure, in the same setting: as for `O=C(CCC1CCCC1)N1CCc2[nH]cnc2[C@@H]1c1nc2ccccc2[nH]1` [Example 912, (R)-1-(4-(1H-benzo[d]imidazol-2-yl)-6,7-dihydro-1H-imidazo[4,5-c]pyridin-5(4H)-yl)-3-cyclopentylpropan-1-one], the figure is above 5000 nM. In the case of `Cc1nc(C(C)(C)O)oc1C(=O)N1CCc2[nH]cnc2[C@H]1c1nc2c(F)cccc2s1` [Example 1471, (S)-(4-(4-fluorobenzo[d]thiazol-2-yl)-6,7-dihydro-1H-imidazo[4,5-c]pyridin-5(4H)-yl)(2-(2-hydroxypropan-2-yl)-4-methyloxazol-5-yl)methanone], the AC50 under setting [1] was below 500 nM.

In the case of `COc1ccc2c(C(=O)N3CCc4[nH]cnc4[C@H]3c3nc4ccccc4[nH]3)cnn2c1` [(S)-(4-(1H-benzo[d]imidazol-2-yl)-6,7-dihydro-1H-imidazo[4,5-c]pyridin-5(4H)-yl)(6-methoxypyrazolo[1,5-a]pyridin-3-yl)methanone], under setting [2], the AC50 lay within 1000 to 5000 nM. The same measure, in the same setting: as for `O=C(c1nnc(CCNC2CC2)o1)N1CCc2[nH]cnc2C1c1nc2ccccc2s1` (stereo not drawn), the figure is 1000 to 5000 nM. Regarding `O=C(c1cnn2ccccc12)N1CCc2nc[nH]c2[C@@H]1c1nc2c(F)cccc2s1` [Example 1112, (R)-(4-(4-fluorobenzo[d]thiazol-2-yl)-6,7-dihydro-3H-imidazo[4,5-c]pyridin-5(4H)-yl)(pyrazolo[1,5-a]pyridin-3-yl)methanone], the AC50 under setting [1] lay in the range of 1000 to 5000 nM.

Regarding `O=C(c1ccno1)N1CCc2[nH]cnc2C1c1nc2ccc(F)cc2s1` (stereo not drawn), the AC50 under setting [2] is above 5000 nM.

Turning to `O=C(c1oc(N2CCOCC2)nc1Br)N1CCc2[nH]cnc2[C@H]1c1nc2c(F)cccc2s1` [Example 2033], the AC50 under setting [1] is below 500 nM.

With `O=C(C=Cc1ccccc1)N1CCc2[nH]cnc2C1c1nc2ccccc2[nH]1` (stereo not drawn), under setting [2], the AC50 was 1000 to 5000 nM. `Cn1cc(-c2nnc(C(=O)N3CCc4[nH]cnc4[C@H]3c3nc4ccccc4s3)o2)c(C(F)(F)F)n1` [Example 1883]: the concentration at half-maximal activity (AC50) under setting [1] is below 500 nM. In the case of `O=C(c1cnco1)N1CCc2[nH]cnc2C1c1nc2c(F)cccc2s1` (stereo not drawn), the AC50 under setting [2] is 1000 to 5000 nM. For `O=C(CCc1nccs1)N1CCc2[nH]cnc2C1c1nc2ccc(Cl)cc2s1` (stereo not drawn), the AC50 under setting [2] was 1000 to 5000 nM. For `O=C(C1CN(c2ccccn2)C1)N1CCc2[nH]cnc2C1c1nc2c(F)cccc2s1` (stereo not drawn), the AC50 under setting [2] fell in the range of 1000 to 5000 nM. As to `CC(C)n1cc(-c2ncc(C(=O)N3CCc4[nH]cnc4[C@@H]3c3nc4ccccc4s3)o2)cn1` [Example 1416, (R)-(4-(benzo[d]thiazol-2-yl)-6,7-dihydro-1H-imidazo[4,5-c]pyridin-5(4H)-yl)(2-(1-isopropyl-1H-pyrazol-4-yl)oxazol-5-yl)methanone], the AC50 under setting [1] lay within 1000 to 5000 nM.

As for `CC(C)(O)c1nc(Br)c(C(=O)N2CCc3[nH]cnc3[C@H]2c2nc3ccccc3s2)o1` [Example 2089], the AC50 under setting [1] is below 500 nM. Still for that read-out and setting: as for `CC(C)(O)c1nc(C(F)F)c(C(=O)N2CCc3[nH]cnc3[C@H]2c2nc3ccccc3s2)s1` [Example 2105], the figure is below 500 nM.

`Cn1nc(C(C)(C)O)nc1C(=O)N1CCc2[nH]cnc2C1c1nc2ccccc2s1` (stereo not drawn): the AC50 under setting [2] was in the range of 1000 to 5000 nM. Consider `Cc1cc(F)ccc1-c1nnc(C(=O)N2CCc3[nH]cnc3[C@H]2c2nc3ccccc3s2)o1` [Example 1783], for which, under setting [1], the AC50 was below 500 nM.

For `O=C(c1cnn2ccc(Cl)cc12)N1CCc2[nH]cnc2C1c1nc2ccc(Cl)cc2[nH]1` (stereo not drawn), the AC50 under setting [2] is above 5000 nM. On to `Cn1nc(N)cc1C(=O)N1CCc2[nH]cnc2C1c1nc2c(F)cccc2s1` (stereo not drawn), for which the AC50 under setting [2] was above 5000 nM. Take `O=C(c1nnc(CCCNC2CC2)o1)N1CCc2[nH]cnc2C1c1nc2ccccc2s1` (stereo not drawn): the concentration at half-maximal activity (AC50) result (24 hrs with compound) is recorded as “E, E”. As to `CN(C)Cc1ccc2c(C(=O)N3CC4(CC4)c4[nH]cnc4C3c3nc4ccccc4s3)cnn2c1` (stereo not drawn), under setting [2], the AC50 is above 5000 nM. Turning to `c1ccc2[nH]c(C3c4nc[nH]c4CCN3Cc3cncs3)nc2c1` (stereo not drawn), the AC50 under setting [2] was above 5000 nM.

With `Cc1ncc(C(=O)N2CCc3[nH]cnc3[C@H]2c2nc3c(F)cccc3s2)o1` (single isomer, unassigned), the AC50 under setting [2] was in the range of 1000 to 5000 nM. The same measure, in the same setting: as for `O=C(c1nccs1)N1CCc2[nH]cnc2C1c1nc2c(Br)cccc2s1` (stereo not drawn), the figure is 1000 to 5000 nM.

Regarding `COc1ccn2ncc(C(=O)N3CCc4[nH]cnc4[C@H]3c3nc4c(F)cccc4s3)c2c1` [Example 1197, (S)-(4-(4-fluorobenzo[d]thiazol-2-yl)-6,7-dihydro-1H-imidazo[4,5-c]pyridin-5(4H)-yl)(5-methoxypyrazolo[1,5-a]pyridin-3-yl)methanone], the AC50 under setting [1] lay within 500 to 1000 nM. On the same count and under the same terms, as for `O=C(c1cnc(-c2ccc(F)cn2)o1)N1CCc2[nH]cnc2[C@H]1c1nc2ccccc2s1` [Example 1337], the figure is below 500 nM.

These data come from patent US20250171438A1 (Agios Pharmaceuticals, Inc., priority 2022, published 2025).
